Experimental data from patent US6504058B1 (priority 1997, dated 2003).

Experiments:
[1] = test system: Botrytis cinerea; experiment: Test E: gray mold, preventive spray on cucumber seedlings, disease rating; type: in vivo, Botrytis cinerea (on cucumber seedlings); details: 200 ppm test suspension sprayed to run-off (equivalent to 500 g/ha) on cucumber seedlings; 100 = 100% disease control, 0 = no control; # = significant activity
Excerpt: (§1) Test compounds were first dissolved in acetone in an amount equal to 3% of the final volume and then suspended at a concentration of 200 ppm in purified water containing 250 ppm of the surfactant Trem® 014 (polyhydric alcohol esters). The resulting test suspensions were then used in the following test. Spraying these 200 ppm test suspensions to the point of run-off on the test plants is the equivalent of a rate of 500 g/ha.
The test suspension was sprayed to the point of run-off on cucumber seedlings. The following day the seedlings were inoculated with a spore suspension of Botrytis cinerea (the causal agent of gray mold on many crops) and incubated in a saturated atmosphere at 20° C. for 48 h, and moved to a growth chamber at 20° C. for 5 days, after which disease ratings were made.
(§2) Results for Tests A-E are given in Table A. In the table, a rating of 100 indicates 100% disease control and a rating of 0 indicates no disease control (relative to the controls). A dash (-) indicates no test results. ND indicates disease control not determined due to phytotoxicity. # indicates significant activity.

[2] = test system: Phytophthora infestans; type: in vivo, Phytophthora infestans (on tomato seedlings); details: 200 ppm test suspension sprayed to run-off (equivalent to 500 g/ha) on tomato seedlings; 100 = 100% disease control, 0 = no control; # = significant activity
[3] = test system: Puccinia recondita; experiment: Test B: wheat leaf rust, preventive spray on wheat seedlings, disease rating; type: in vivo, Puccinia recondita (on wheat seedlings); details: 200 ppm test suspension sprayed to run-off (equivalent to 500 g/ha) on wheat seedlings; 100 = 100% disease control, 0 = no control; # = significant activity
Excerpt: as §1
The test suspension was sprayed to the point of run-off on wheat seedlings. The following day the seedlings were inoculated with a spore suspension of Puccinia recondita (the causal agent of wheat leaf rust) and incubated in a saturated atmosphere at 20° C. for 24 h, and then moved to a growth chamber at 20° C. for 6 days, after which disease ratings were made.
as §2

[4] = test system: Pyricularia oryzae; type: in vivo, Pyricularia oryzae (on rice seedlings); details: 200 ppm test suspension sprayed to run-off (equivalent to 500 g/ha) on rice seedlings; 100 = 100% disease control, 0 = no control; # = significant activity
[5] = test system: Erysiphe graminis f. sp. tritici; experiment: Test A: wheat powdery mildew, preventive spray on wheat seedlings, disease rating; type: in vivo, Erysiphe graminis f. sp. tritici (on wheat seedlings); details: 200 ppm test suspension sprayed to run-off (equivalent to 500 g/ha) on wheat seedlings; 100 = 100% disease control, 0 = no control; # = significant activity
Excerpt: as §1
The test suspension was sprayed to the point of run-off on wheat seedlings. The following day the seedlings were inoculated with a spore dust of Erysiphe graminis f. sp. tritici, (the causal agent of wheat powdery mildew) and incubated in a growth chamber at 20° C. for 7 days, after which disease ratings were made.
as §2

| SMILES | Test E disease control rating (gray mold) [1] | Test D disease control rating (potato and tomato late blight) [2] | Test B disease control rating (wheat leaf rust) [3] | Test C disease control rating (rice blast) [4] | Test A disease control rating (wheat powdery mildew) [5] |
| --- | --- | --- | --- | --- | --- |
| CC(NC(=O)C1(C)CC(C)(Cl)C1)c1cccc2ccccc12 (stereo not shown) [compound 22] | 0 (a rating of 0 indicates no disease control (relative to the controls)) | 0 (a rating of 0 indicates no disease control (relative to the controls)) | 0 (a rating of 0 indicates no disease control (relative to the controls)) | 0 (a rating of 0 indicates no disease control (relative to the controls)) | 0 (a rating of 0 indicates no disease control (relative to the controls)) |
| CC(COc1cc(Br)ccc1C#N)NC(=O)C1(C)CC(C)(Cl)C1 (stereo not shown) [compound 47] | 0 (a rating of 0 indicates no disease control (relative to the controls)) | 26% | 25% | 94# % | 97# % |
| CC(NC(=O)C1(C)CC(C)(Cl)C1)c1ccc(Br)cc1 (stereo not shown) [compound 13] | 0 (a rating of 0 indicates no disease control (relative to the controls)) | 0 (a rating of 0 indicates no disease control (relative to the controls)) | 0 (a rating of 0 indicates no disease control (relative to the controls)) | 94# % | 0 (a rating of 0 indicates no disease control (relative to the controls)) |
| CC(COc1ccc(Br)cc1C#N)NC(=O)C1(C)CC(C)(Cl)C1 (stereo not shown) [compound 38] | 8% | 23% | 66# % | 0 (a rating of 0 indicates no disease control (relative to the controls)) | 0 (a rating of 0 indicates no disease control (relative to the controls)) |
| CC(NC(=O)C1(C)CC(C)(Cl)C1)c1ccc(Cl)cc1Cl (stereo not shown) [compound 19] | 0 (a rating of 0 indicates no disease control (relative to the controls)) | 0 (a rating of 0 indicates no disease control (relative to the controls)) | 0 (a rating of 0 indicates no disease control (relative to the controls)) | 100# (a rating of 100 indicates 100% disease control) | 33% |
| CC(NC(=O)C1CC(C)(Cl)C1)c1ccc(Br)cc1 (stereo not shown) [compound 11] | 0 (a rating of 0 indicates no disease control (relative to the controls)) | 60% | 0 (a rating of 0 indicates no disease control (relative to the controls)) | 53% | 57% |
| CC(NC(=O)C1CC(C)(Cl)C1)C(Oc1ccccc1C#N)c1ccccc1 (stereo not shown) [compound 35] | 0 (a rating of 0 indicates no disease control (relative to the controls)) | 0 (a rating of 0 indicates no disease control (relative to the controls)) | 0 (a rating of 0 indicates no disease control (relative to the controls)) | 86# % | 0 (a rating of 0 indicates no disease control (relative to the controls)) |
| CC(NC(=O)C1CC(C)(Cl)C1)C(Oc1cc(F)ccc1C#N)c1ccccc1 (stereo not shown) [compound 34] | 0 (a rating of 0 indicates no disease control (relative to the controls)) | 45% | 0 (a rating of 0 indicates no disease control (relative to the controls)) | 52% | 59% |
